Results reported in patent US11279733B2, “Peptide antibiotics” (priority 2017, dated 2022).
≈ marks a conversion by molar mass, not a printed value. Like-named read-outs stand apart in the source and are kept apart here. Starred links: 1 amine or outer side, 2 acyl side, 3 side chain; linkers in the order of their positions; H or OH if unused. Positions of bridges follow the written chain, without caps; N, C: chain ends. Non-standard residues stand in square brackets, D forms with d. Residues, ends and D or L forms follow the SMILES beside them. *: point of attachment. Decanoyl(3R-OH) = CCCCCCC[C@@H](O)CC(=O)*; azaDab = NCCN(N[*:1])C(=O)[*:2]; dDab = NCC[C@@H](N)C(=O)O; dDap = NC[C@@H](N)C(=O)O; Dab = NCC[C@H](N)C(=O)O

Tests used:
in vitro [1] = settings: human
Outline: (§1)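 Viability is measured by resazurin reduction (5 μM, 2 h, 37 °C) after cells seeded at 4000 per well are treated with compound for 24 h.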

Neisseria gonorrhoeae = test: MIC determination, Neisseria gonorrhoeae; assay type: cell-based; settings: for MIC N. gonorrhoeae FA19 ATCC BAA-1838: strain FA19 ATCC BAA-1838
Outline: (§2)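 Mid-log cultures grown in Mueller Hinton broth at 37° C were tested by 2-fold broth microdilution at 5×10^5 CFU/mL final. Compounds were dissolved in water and tested over a final range of 32 to 0.015 μg/mL.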

[2] = In vitro nephrotoxicity, GGT release from primary human kidney cells; assay type: cell-based; settings: pH 7.4
Source text: (§3) hPT cells were derived from whole human kidneys procured by the International Institute for the Advancement of Medicine (Edison, N.J., USA). All tissue was scored by a pathologist as normal (i.e., derived from non-cancerous, non-diseased tissue). Cell isolation procedures were based on those originally described by Todd et al. (1996) and modified (Cummings and Lash, 2000; Cummings et al., 2000) with use of sterile conditions (i.e., all instruments and glassware were autoclaved and all buffers were filtered through a 0.2-μm pore-size filter). Renal cortex and outer stripe were cut into slices, washed with sterile PBS, minced, and the pieces were placed in a trypsinization flask filled with 300 ml of sterile, filtered Hanks' buffer, containing 25 mM NaHCO3, 25 mM HEPES, pH 7.4, 0.5 mM EGTA, 0.2% (w/v) bovine serum albumin, 50 μg/ml gentamicin, 1.3 mg/mL collagenase, and 0.59 mg/ml CaCl2), which was filtered prior to use. Whole kidneys were perfused with Wisconsin medium and kept on ice until they arrived at the laboratory, which was usually within 24 h of removal from the donor.
(§4) All buffers were continuously bubbled with 95% O2/5% CO2 and were maintained at 37° C. Minced cortical pieces from whole kidneys were subjected to collagenase digestion for 60 min, after which the supernatant was filtered through a 70-μm mesh filter to remove tissue fragments, centrifuged at 150×g for 7 min, and the pellet resuspended in Dulbecco's Modified Eagle's Medium: Ham's F12 Medium (DMEM/F12; 1/1). Approximately 5 to 7×10^6 cells were obtained per 1 g of human kidney cortical tissue.
(§5) hPT cells were resuspended in 2 mL of DMEM/F12 and diluted to 500 mL with cell culture medium, which was serum-free and hormonally-defined. Composition of this supplemented medium was based on earlier work establishing optimal conditions for primary culture of rat PT cells (Lash et al., 1995). Basal medium was a 1:1 mixture of DMEM/F12. […] Cells were seeded in a volume of 0.5 ml at a density of 50-100 μg protein per cm^2 (0.5-1.0×10^6 cells/ml) on 24-well plates. Cultures were grown at 37° C. in a humidified incubator under an atmosphere of 95% air/5% CO2 at pH 7.4. Cultures were grown to approximately 80%-90% confluence (generally 5-6 days) prior to experiments. Cells were harvested by either scraping the flasks with a Teflon scraper or by brief incubation with Cellstripper (Cellgro, Herndon, Va., USA) (in Ca^2+- and Mg^2+-free Hanks' buffer).
Release of gamm-glutanyltransferase was assessed according to Orlowski, M., Meister, A. 1963. γ-Glutamyl-p-nitroanilide: A new convenient substrate for determination and study of L- and D-γ-glutamyltranspeptidase activities (Biochim. Biophys. Acta 73: 679-681.)
A 2.5 mM substrate Solution was prepared from 67 mg γ-glutamyl-p-nitroanilide+264 mg glycylglycine in 100 mL of 0.05 M Tris, pH 8.2 (50 mM Tris, pH 8.2: 605 mg Tris/HCl per 100 mL).
For the assay in 96-well plates, 6-μL of sample and 0.3 mL substrate solution were added to each well. The absorbance was measured at 410 nm for the appearance of product, p-nitroanilide (molar extinction=8800 M^−1 cm^−1).

[3] = In vitro nephrotoxicity, LDH release from primary human kidney cells; assay type: cell-based; settings: pH 7.4
Source text: as §3, §4, §5

K. pneumoniae ATCC 13883 = settings: ATCC 13883
Outline: as §2

[4] = test system: K. pneumoniae ATCC 700603, MDR; settings: ATCC 700603
Outline: as §2

A. baumannii ATCC 19606 = settings: ATCC 19606
Outline: as §2

P. aeruginosa ATCC 27853 = settings: ATCC 27853
Outline: as §2

E. coli ATCC 25922 = settings: ATCC 25922
Outline: as §2

[5] = test system: K. pneumoniae ATCC BAA-2146, NDM-1 pos; settings: ATCC BAA-2146
Outline: as §2

[6] = test system: K. pneumoniae GN_102 PmxR; settings: GN 102 PmxR
Outline: as §2

[7] = test system: S. aureus ATCC 25923, MSSA; settings: ATCC 25923
Outline: as §2

[8] = test system: P. aeruginosa GN_043, PmxR
Outline: as §2

[9] = test system: K. pneumoniae GN_106, PmxR; settings: GN 106, PmxR
Outline: as §2

[10] = test system: P. aeruginosa GN_105, PmxR; settings: GN 105, PmxR
Outline: as §2

A. baumannii GN_093 PmxR = settings: GN 093 PmxR
Outline: as §2

HEK293 cells = test: in vitro; settings: human, 24 h
Outline: as §1

in vitro [11] = settings: human; remark: listed apart in the source
Outline: as §1

HepG2 cells = test: in vitro; settings: human, 24 h
Outline: as §1

| Compound | CC50 at 24 h (in vitro [1]) | MIC N. gonorrhoeae FA19 ATCC BAA-1838 (Neisseria gonorrhoeae) | CC50 [2] | CC50 [3] | MIC, K. pneumoniae ATCC 13883 (K. pneumoniae ATCC 13883) | MIC, K. pneumoniae ATCC 700603, MDR [4] | MIC, A. baumannii ATCC 19606 (A. baumannii ATCC 19606) | MIC, P. aeruginosa ATCC 27853 (P. aeruginosa ATCC 27853) | MIC, E. coli ATCC 25922 (E. coli ATCC 25922) | MIC, K. pneumoniae ATCC BAA-2146, NDM-1 pos [5] | MIC K. pneumoniae ATCC 13883 (K. pneumoniae ATCC 13883) | MIC K. pneumoniae ATCC 700603, MDR [4] | MIC A. baumannii ATCC 19606 (A. baumannii ATCC 19606) | MIC P. aeruginosa ATCC 27853 (P. aeruginosa ATCC 27853) | MIC E. coli ATCC 25922 (E. coli ATCC 25922) | MIC K. pneumoniae ATCC BAA-2146, NDM-1 pos [5] | MIC K. pneumoniae Cl Koprana 10065 0661:1 PmxR [6] | MIC S. aureus ATCC 25923, MSSA [7] | MIC, P. aeruginosa FADDI-PA070, PmxR ([8]; strain name as in Table 11) | MIC K. pneumoniae Cl 183-16357-20352, PmxR [9] | also measured |
| --- | --- | --- | --- | --- | --- | --- | --- | --- | --- | --- | --- | --- | --- | --- | --- | --- | --- | --- | --- | --- | --- |
| CCCCCCC[C@@H](O)CC(=O)N[C@H](CN)C(=O)N[C@H]1CCNC(=O)[C@H](CC(C)C)NC(=O)[C@H](CCN)NC(=O)[C@H](CCN)NC(=O)[C@H](CC(C)C)NC(=O)[C@@H](Cc2ccccc2)NC(=O)[C@H](CCN)NC1=O [compound 6442, 3(R)OH-nC9CO-D-Dap-cyc[L-Dab-L-Dab-D-Phe-L-Leu-L-Dab-L-Dab-L-Leu]] ({Decanoyl(3R-OH)}-[dDap][Dab][Dab][dF]L[Dab][Dab]L; lactam 2-C) | > 300 µM | 1.56 µg/mL (≈ 1.51 µM) | > 128 µg/mL | > 128 µg/mL | 4 µg/mL (≈ 3.88 µM) | 4 µg/mL (≈ 3.88 µM) | 4 µg/mL (≈ 3.88 µM) | 2 µg/mL (≈ 1.94 µM) | 2 µg/mL (≈ 1.94 µM) | 8 µg/mL (≈ 7.76 µM) |  |  |  |  |  |  |  |  |  |  | MIC N. gonorrhoeae F89 (Neisseria gonorrhoeae; strain F89): 1.56 µg/mL (≈ 1.51 µM); MIC N. gonorrhoeae FA1090 A25 ATCC 700825 (Neisseria gonorrhoeae; strain FA1090 A25 ATCC 700825): 1.3 µg/mL (≈ 1.26 µM); MIC N. gonorrhoeae H041 (Neisseria gonorrhoeae; strain H041): 1.56 µg/mL (≈ 1.51 µM); MIC K. pneumoniae GN_102 PmxR [6]: 2 µg/mL (≈ 1.94 µM); MIC, S. aureus ATCC 25923, MSSA [7]: 16 µg/mL (≈ 15.5 µM); MIC P. aeruginosa GN_043, PmxR ([8]; Table 6, polymyxin-resistant): 2 µg/mL (≈ 1.94 µM); MIC K. pneumoniae GN_106, PmxR [9]: 4 µg/mL (≈ 3.88 µM); MIC P. aeruginosa GN_105, PmxR [10]: 2 µg/mL (≈ 1.94 µM); MIC A. baumannii GN_093 PmxR (A. baumannii GN_093 PmxR): 4 µg/mL (≈ 3.88 µM) |
| CCCCCCC[C@@H](O)CC(=O)NN(CCN)C(=O)N[C@H]1CCNC(=O)[C@H](CC(C)C)NC(=O)[C@H](CCN)NC(=O)[C@H](CCN)NC(=O)[C@H](CC(C)C)NC(=O)[C@@H](Cc2ccccc2)NC(=O)[C@H](CCN)NC1=O [compound 8639, 3(R)OH-nC9CO-azaDab-cyc[L-Dab-L-DAB-D-Phe-L-Leu-L-Dab-L-Dab-L-Leu]] ({Decanoyl(3R-OH)}-[azaDab][Dab][Dab][dF]L[Dab][Dab]L; lactam 2-C) |  | 0.78 µg/mL (≈ 0.746 µM) | > 128 µg/mL | > 128 µg/mL |  |  |  |  |  |  | 4 µg/mL (≈ 3.83 µM) | 2 µg/mL (≈ 1.91 µM) | 4 µg/mL (≈ 3.83 µM) | 2 µg/mL (≈ 1.91 µM) | 2 µg/mL (≈ 1.91 µM) | 4 µg/mL (≈ 3.83 µM) | 2 µg/mL (≈ 1.91 µM) | 8 µg/mL (≈ 7.65 µM) | 2 µg/mL (≈ 1.91 µM) | 2 µg/mL (≈ 1.91 µM) | MIC P. aeruginosa PA9704, PmxR [10]: 2 µg/mL (≈ 1.91 µM); MIC A. baumannii Cl Ptyela 10073 4512:2, PmxR (A. baumannii GN_093 PmxR): 8 µg/mL (≈ 7.65 µM) |
| CCCCCCC[C@@H](O)CC(=O)N[C@H](CCN)C(=O)N[C@H]1CCNC(=O)[C@H](CC(C)C)NC(=O)[C@H](CCN)NC(=O)N(CCN)NC(=O)[C@H](CC(C)C)NC(=O)[C@@H](Cc2ccccc2)NC(=O)[C@H](CCN)NC1=O [compound 8641, 3(R)OH-nC9CO-D-Dab-cyc[L-Dab-L-DAB-D-Phe-L-Leu-azaDab-L-Dab-L-Leu]] ({Decanoyl(3R-OH)}-[dDab][Dab][Dab][dF]L[azaDab][Dab]L; lactam 2-C) | > 300 µM |  | > 128 µg/mL | > 128 µg/mL |  |  |  |  |  |  | 4 µg/mL (≈ 3.83 µM) | 4 µg/mL (≈ 3.83 µM) | 8 µg/mL (≈ 7.65 µM) | 2 µg/mL (≈ 1.91 µM) | 4 µg/mL (≈ 3.83 µM) | 8 µg/mL (≈ 7.65 µM) | 2 µg/mL (≈ 1.91 µM) | 32 µg/mL (≈ 30.6 µM) | 2 µg/mL (≈ 1.91 µM) | 4 µg/mL (≈ 3.83 µM) | CC50 (HEK293 cells): > 300 µM; CC50 at 24 h (in vitro [11]): > 300 µM; CC50 (HepG2 cells): > 300 µM; MIC P. aeruginosa PA9704, PmxR [10]: 2 µg/mL (≈ 1.91 µM); MIC A. baumannii Cl Ptyela 10073 4512:2, PmxR (A. baumannii GN_093 PmxR): 32 µg/mL (≈ 30.6 µM) |
| CCCCCCC[C@@H](O)CC(=O)N[C@H](CCN)C(=O)N[C@H]1CCNC(=O)[C@H](CC(C)C)NC(=O)[C@H](CCN)NC(=O)[C@H](CCCNC(=N)N)NC(=O)[C@H](CC(C)C)NC(=O)[C@@H](Cc2ccccc2)NC(=O)[C@H](CCN)NC1=O [compound 8733, 3(R)OH-nC9CO-D-Dab-cyc[L-Dab-L-DAB-D-Phe-L-Leu-L-Arg-L-Dab-L-Leu]] ({Decanoyl(3R-OH)}-[dDab][Dab][Dab][dF]LR[Dab]L; lactam 2-C) |  | 0.78 µg/mL (≈ 0.709 µM) | > 128 µg/mL | > 128 µg/mL | 2 µg/mL (≈ 1.82 µM) | 2 µg/mL (≈ 1.82 µM) | 4 µg/mL (≈ 3.63 µM) | 2 µg/mL (≈ 1.82 µM) | 2 µg/mL (≈ 1.82 µM) | 4 µg/mL (≈ 3.63 µM) |  |  |  |  |  |  |  |  |  |  | MIC, K. pneumoniae Cl Koprana 10065 0661:1, PmxR [6]: 2 µg/mL (≈ 1.82 µM); MIC, S. Aureus ATCC 25923, MSSA [7]: 8 µg/mL (≈ 7.27 µM); MIC, P. aeruginosa FADDI-PA070, PmxR ([8]; Table 5, polymyxin-resistant): 2 µg/mL (≈ 1.82 µM); MIC, K. pneumoniae Cl 138-16347-20362, PmxR [9]: 2 µg/mL (≈ 1.82 µM); MIC, P. aeruginosa PA9704, PmxR [10]: 2 µg/mL (≈ 1.82 µM); MIC, A. baumannii Cl Ptyela 10073 4512:2, PmxR (A. baumannii GN_093 PmxR): 8 µg/mL (≈ 7.27 µM) |
